Experimental data: patent EP4711368A1 (priority 2023, dated 2024)
Like-named read-outs stand apart in the source and are kept apart here.

How the values were obtained:
[1] = test system: SD rats; assay: animal or person; assay type: in vivo; conditions: rat, in vivo, iv
[2] = test system: SD rats; conditions: rat, in vivo; for MLD: iv; for Onset time: test concentration or dose not given here; for Righting feflex duration: test concentration or dose not given here; for Sedation Duration: test concentration or dose not given here

Row | Structure (SMILES) | Minimal effective anesthetic dose [1] | Onset time [1] | Righting feflex duration [1] | Sedation Duration [1] | TI [2] | MLD [2] | MLD ([2]; SD)
1 | Cc1cnc2n1-c1ccc(Br)cc1C(c1ccccn1)=NC2CCC(=O)OC1COC1 (stereo not shown) [Compound 4] | 15.0 mg/kg | 0.2 to 0.4 min | 1.1 to 3.5 min | 4.2 to 10.8 min | >1.5 | >22.5 mg/kg | 
2 | CC(=O)C(C)(C)OC(=O)CCC1N=C(c2ccccn2)c2cc(Br)ccc2-n2c(C)cnc21 (stereo not shown) [Compound 6] | 1.3 mg/kg | 0.3 to 0.8 min | 0.6 to 3.4 min | 4.0 to 10.7 min | >3.8 | >5 mg/kg | 
3 | CN1C(=O)C(CCC(=O)OC2(C)COC2)N=C(c2ccccn2)c2cc(Br)ccc21 (stereo not shown) [Compound 14] | 0.5 mg/kg | 0.2 to 0.7 min | 0.6 to 3.2 min | 3.5 to 7.0 min | >2 | >1 mg/kg | 
4 | CN1C(=O)C(CCC(=O)OC2COC2)N=C(c2ccccn2)c2cc(Br)ccc21 (stereo not shown) [Compound 16] | 5.0 mg/kg | 0.2 to 0.5 min | 0.6 to 1.7 min | 3.2 to 5.3 min | >4.5 | >22.5 mg/kg | 
5 | C#CC(C)(C)OC(=O)CCC1N=C(c2ccccn2)c2cc(Br)ccc2N(C)C1=O (stereo not shown) [Compound 17] | 1.3 mg/kg | 0.2 to 0.5 min | 1.6 to 3.3 min | 6.6 to 9.9 min | >3.8 | >5 mg/kg | 
6 | CC(=O)C(C)(C)OC(=O)CCC1N=C(c2ccccn2)c2cc(Br)ccc2N(C)C1=O (stereo not shown) [Compound 18] | 0.5 mg/kg | 0.2 to 0.9 min | 0.8 to 4.2 min | 4.5 to 10.7 min | >2.4 | >1.2 mg/kg | 
7 | C=CC(C)(C)OC(=O)CCC1N=C(c2ccccn2)c2cc(Br)ccc2N(C)C1=O (stereo not shown) [Compound 19] | 1.0 mg/kg | 0.4 to 1.0 min | 1.2 to 5.5 min | 9.7 to 14.8 min | >1.9 | >1.9 mg/kg | 
8 | C=CC(C)(C)OC(=O)CCC1N=C(c2cccc[n+]2[O-])c2cc(Br)ccc2N(C)C1=O (stereo not shown) [Compound 20] | 15.0 mg/kg | 0.3 to 0.5 min | 4.1 to 6.4 min | 17.0 to 20.3 min | >1.5 | >22.5 mg/kg | 
9 | COC(=O)CCC1N=C(c2ccccn2)c2cc([N+](=O)[O-])ccc2N(C)C1=O (stereo not shown) [Compound 27] | 10.0 mg/kg | 0.2 to 0.5 min | 1.3 to 3.9 min | 4.4 to 10.7 min | >1.8 | >18 mg/kg | 
10 | CCOC(=O)CCC1N=C(c2ccccn2)c2cc([N+](=O)[O-])ccc2N(C)C1=O (stereo not shown) [Compound 28] | 5.0 mg/kg | 0.2 to 0.5 min | 0.5 to 1.6 min | 4.1 to 7.3 min | >2.3 | >11.3 mg/kg | 
11 | C#CC(C)(C)OC(=O)CCC1N=C(c2ccccn2)c2cc([N+](=O)[O-])ccc2N(C)C1=O (stereo not shown) [Compound 32] | 5.0 mg/kg | 0.2 to 0.4 min | 1.8 to 7.7 min | 21.1 to 45.7 min | 6.0 | 30 mg/kg | 
12 | C=C1N=C(c2ccccn2)c2cc(Br)ccc2N(C)C1=O [Compound 36] | 10.0 mg/kg | 0.4 to 0.9 min | 0.7 to 4.1 min | 8.6 to 14.7 min | 1.9 | 18.7 mg/kg | 
13 | CN1C(=O)C(CO)N=C(c2ccccn2)c2cc(Br)ccc21 (stereo not shown) [Compound 37] | 5.0 mg/kg | 0.3 to 0.6 min | 0.7 to 5.8 min | 15.3 to 21.3 min | >2.0 | >10 mg/kg | 
14 | CCC(=O)OCC1N=C(c2ccccn2)c2cc(Br)ccc2N(C)C1=O (stereo not shown) [Compound 40] | 5.0 mg/kg | 0.2 to 0.5 min | 1.3 to 17.2 min | 40.2 to 364.0 min | 8.0 | 40 mg/kg | 
15 | COC(=O)CC1N=C(c2ccccn2)c2cc(Br)ccc2N(C)C1=O (stereo not shown) [Compound 113] | 15.0 mg/kg | 0.2 to 0.3 min | 0.7 to 29.5 min | 20.6 to 77.7 min | 2.7 | 40 mg/kg | 
16 | CC(C)OC(=O)CC1N=C(c2ccccn2)c2cc(Br)ccc2N(C)C1=O (stereo not shown) [Compound 114] | 0.5 mg/kg | 0.4 to 1.1 min | 0.8 to 27.6 min | 16.5 to 140.3 min | 40.0 | 20 mg/kg | 
17 | CC(=O)OCCC1N=C(c2ccccn2)c2cc(Br)ccc2N(C)C1=O (stereo not shown) [Compound 115] | 2.5 mg/kg | 0.2 to 0.4 min | 4.9 to 14.1 min | 12.4 to 56.0 min | 16 | 40 mg/kg | 
18 | CN1C(=O)C(CCO)N=C(c2ccccn2)c2cc(Br)ccc21 (stereo not shown) [Compound 117] | 25.0 mg/kg | 0.4 to 0.5 min | 2.7 to 3.8 min | 14.6 to 32.0 min | 1.6 | 40 mg/kg | 
19 | CN1C(=O)C(CCOC(=O)OC2COC2)N=C(c2ccccn2)c2cc(Br)ccc21 (stereo not shown) [Compound 134] |  |  |  |  |  | 20 mg/kg | 
20 | Cc1cnc2n1-c1ccc(Br)cc1C(c1ccccn1)=NC2CCOCc1ccccc1 (stereo not shown) [Compound 144] |  |  |  |  |  | 3.8 mg/kg | 
21 | CC(=O)OCCC1N=C(c2ccccn2)c2cc(Br)ccc2-n2c(C)cnc21.O=S(=O)(O)c1ccccc1 (stereo not shown) [Compound 145D] | 7.5 mg/kg | 0.2 to 0.5 min | 1.7 to 19.9 min | 23.0 to 63.0 min | >2.3 | >16.9 mg/kg | 
22 | COC(=O)CCC1N=C(c2ccccn2)c2cc3nc(C(F)(F)F)sc3cc2N(C)C1=O (stereo not shown) [Compound 180] |  |  |  |  |  | 40 mg/kg | 
23 | CN(C)C(=O)CN1N=C(c2ccccn2)c2cc(Br)ccc2N(C)C1=O [Compound 258] |  |  |  |  |  |  | 40 mg/kg
24 | COC(=O)CCN1N=C(c2ccccn2)c2cc(Br)ccc2N(C)C1=O [Compound 259] |  |  |  |  |  |  | >20 mg/kg
25 | C=CC1(OC(=O)CCN2N=C(c3ccccn3)c3cc(Br)ccc3N(C)C2=O)COC1 [Compound 262] |  |  |  |  |  |  | >20 mg/kg

Row | Structure (SMILES) | Minimal effective anesthetic dose [1] | Onset time [1] | Righting feflex duration [1] | Sedation Duration [1] | TI [2] | MLD [2] | MLD ([2]; SD)
26 | CN1C(=O)N(CCC#N)N=C(c2ccccn2)c2cc(Br)ccc21 [Compound 263] |  |  |  |  |  |  | 40 mg/kg
27 | CCn1nnc(CCN2N=C(c3ccccn3)c3cc(Br)ccc3N(C)C2=O)n1 [Compound 265] |  |  |  |  |  | 40 mg/kg | 
28 | CCn1nnnc1CN1N=C(c2ccccn2)c2cc(Br)ccc2N(C)C1=O [Compound 268] |  |  |  |  |  | 40 mg/kg | 
29 | CCn1nnc(CN2N=C(c3ccccn3)c3cc(Br)ccc3N(C)C2=O)n1 [Compound 269] |  |  |  |  |  |  | >36 mg/kg
30 | COc1cc(CCN2N=C(c3ccccn3)c3cc(Br)ccc3N(C)C2=O)on1 [Compound 270] |  |  |  |  |  |  | 29.64 mg/kg
31 | CCOc1cc(CCN2N=C(c3ccccn3)c3cc(Br)ccc3N(C)C2=O)on1 [Compound 271] |  |  |  |  |  |  | 30 mg/kg
32 | CC(C)Oc1cc(CCN2N=C(c3ccccn3)c3cc(Br)ccc3N(C)C2=O)on1 [Compound 272] |  |  |  |  |  |  | 30 mg/kg
33 | CCOC(=O)C(C)N1N=C(c2ccccn2)c2cc(Br)ccc2N(C)C1=O (stereo not shown) [Compound 276] |  |  |  |  |  |  | 20 mg/kg
34 | CC(C)OC(=O)C(C)N1N=C(c2ccccn2)c2cc(Br)ccc2N(C)C1=O (stereo not shown) [Compound 277] |  |  |  |  |  |  | 20 mg/kg
35 | CCOC(=O)C(C(C)C)N1N=C(c2ccccn2)c2cc(Br)ccc2N(C)C1=O (stereo not shown) [Compound 278] |  |  |  |  |  | 40 mg/kg | 
36 | CC(C)C(=O)OC(CN1N=C(c2ccccn2)c2cc(Br)ccc2N(C)C1=O)C(C)C (stereo not shown) [Compound 280] |  |  |  |  |  |  | 10 mg/kg
37 | CCC(=O)CN1N=C(c2ccccn2)c2cc(Br)ccc2N(C)C1=O [Compound 281] |  |  |  |  |  |  | 40 mg/kg
38 | CCC(CN1N=C(c2ccccn2)c2cc(Br)ccc2N(C)C1=O)OC(=O)C(C)C (stereo not shown) [Compound 282] |  |  |  |  |  | 15 mg/kg | 
39 | CN1C(=O)N(CCc2cc(Br)no2)N=C(c2ccccn2)c2cc(Br)ccc21 [Compound 283] |  |  |  |  |  |  | 40 mg/kg
40 | CN1C(=O)N(CCOCc2ccccc2)N=C(c2ccccn2)c2cc(Br)ccc21 [Compound 285] |  |  |  |  |  |  | 15 mg/kg
41 | CCN(C(=O)OCN1N=C(c2ccccn2)c2cc(Br)ccc2N(C)C1=O)C(C)C [Compound 296] |  |  |  |  |  |  | 15 mg/kg
42 | CN1C(=O)N(C[n+]2ccccc2)N=C(c2ccccn2)c2cc(Br)ccc21 [Compound 297] |  |  |  |  |  |  | 5 mg/kg
43 | CN1C(=O)N(CCOC(=O)CCCl)N=C(c2ccccn2)c2cc(Br)ccc21 [Compound 299] |  |  |  |  |  |  | 15 mg/kg
44 | C=CC(=O)OCCN1N=C(c2ccccn2)c2cc(Br)ccc2N(C)C1=O [Compound 301] |  |  |  |  |  |  | 27.4 mg/kg
45 | CC(C)OC(=O)OCCN1N=C(c2ccccn2)c2cc(Br)ccc2N(C)C1=O [Compound 302] |  |  |  |  |  |  | 20 mg/kg
46 | CCOC(=O)CN1N=C(c2ccccn2)c2cc(Br)ccc2N=C1SC [Compound 306] |  |  |  |  |  | 40 mg/kg | 
47 | Cc1cnc2n1-c1ccc(Br)cc1C(c1ccccn1)=NN2CCOC(=O)OC(C)C [Compound 316] |  |  |  |  |  |  | 10 mg/kg
48 | Cc1c[n+]2c3n1-c1ccc(Br)cc1C(c1ccccn1)=NN3CC2 [Compound 321] |  |  |  |  |  |  | 10 mg/kg
49 | O=CN1CCN2N=C(c3ccccn3)c3cc(Br)ccc3N=C12 [Compound 322] |  |  |  |  |  | 34 mg/kg | 
50 | CN1C2=NCCN2N=C(c2ccccn2)c2cc(Br)ccc21 [Compound 324] |  |  |  |  |  |  | >15.7 mg/kg
